Experiments:
Format in all cases: in vivo
[1] = test system: Polygonum convolvulus; experiment: Herbicidal effect pre-emergence, POLCO; conditions: 320 g/hectare, visual grading after 3 weeks vs untreated controls
Text: (§1) Seeds of mono- and dicotyledonous weed plants and crop plants are planted in wood-fiber pots in sandy loam and covered with earth. The compounds according to the invention, formulated in the form of wettable powders (WP) or as emulsion concentrates (EC), are then applied to the surface of the covering earth as aqueous suspension or emulsion at an application rate corresponding to 320 g/hectare at an application rate of 600 to 800 l of water/ha (converted) with the addition of 0.2% wetting agent.
(§2) Following treatment, the pots are placed in a greenhouse and kept under good growth conditions for the test plants. The visual grading of the damage to the test plants is carried out after a test time of 3 weeks in comparison to untreated controls (herbicidal effect in percent (%): 100% effect=plants have died off, 0% effect=as control plants).

[2] = test system: Veronica persica; experiment: Herbicidal effect post-emergence, VERPE
Description: (§3) Seeds of mono- and dicotyledonous weed plants and crop plants are planted in wood-fiber pots in sandy loam, covered with earth and grown in a greenhouse under good growth conditions. 2 to 3 weeks after sowing, the test plants are treated in the single-leaf stage. The compounds according to the invention, formulated in the form of wettable powders (WP) or as emulsion concentrates (EC), are then sprayed onto the green plant parts as aqueous suspension or emulsion using an application rate of 600 to 800 l of water/ha (converted) with the addition of 0.2% by weight of wetting agent. After the test plants had been in the greenhouse for ca. 3 weeks under optimum growth conditions, the effect of the preparations is scored visually in comparison with untreated controls (herbicidal effect in percent (%): 100% effect=plants have died off, 0% effect=as control plants).

[3] = test system: Abutilon theophrasti; experiment: Herbicidal effect post-emergence, ABUTH
Description: as §3

[4] = test system: Veronica persica; experiment: Herbicidal effect pre-emergence, VERPE; conditions: 320 g/hectare, visual grading after 3 weeks vs untreated controls
Text: as §1, §2

[5] = test system: Matricaria inodora; experiment: Herbicidal effect post-emergence, MATIN
Description: as §3

[6] = test system: Polygonum (Fallopia) convolvulus; experiment: Herbicidal effect post-emergence, POLCO
Description: as §3

[7] = test system: Amaranthus retroflexus; experiment: Herbicidal effect pre-emergence, AMARE; conditions: for Effect in % in respect of stated plant, AMARE: 320 g/hectare, visual grading after 3 weeks vs untreated controls
Text: as §1, §2

[8] = test system: Ipomoea purpurea; experiment: Herbicidal effect post-emergence, PHBPU
Description: as §3

[9] = test system: Tripleurospermum inodorum; experiment: Herbicidal effect pre-emergence, MATIN; conditions: 320 g/hectare, visual grading after 3 weeks vs untreated controls
Text: as §1, §2

[10] = test system: Setaria viridis; experiment: Herbicidal effect pre-emergence, SETVI; conditions: for Effect in % in respect of stated plant, SETVI: 320 g/hectare, visual grading after 3 weeks vs untreated controls
Text: as §1, §2

[11] = test system: Amaranthus retroflexus; experiment: Herbicidal effect post-emergence, AMARE
Description: as §3

[12] = test system: Setaria viridis; experiment: Herbicidal effect post-emergence, SETVI
Description: as §3

[13] = test system: Abutilon theophrasti; experiment: Herbicidal effect pre-emergence, ABUTH; conditions: for Effect in % in respect of stated plant, ABUTH: 320 g/hectare, visual grading after 3 weeks vs untreated controls
Text: as §1, §2

[14] = test system: Echinochloa crus-galli; experiment: Herbicidal effect post-emergence, ECHCG
Description: as §3

[15] = test system: Lolium multiflorum; experiment: Herbicidal effect pre-emergence, LOLMU; conditions: for Effect in % in respect of stated plant, LOLMU: 320 g/hectare, visual grading after 3 weeks vs untreated controls
Text: as §1, §2

[16] = test system: Viola tricolor; experiment: Herbicidal effect post-emergence, VIOTR
Description: as §3

[17] = test system: Ipomoea purpurea; experiment: Herbicidal effect pre-emergence, PHBPU; conditions: 320 g/hectare, visual grading after 3 weeks vs untreated controls
Text: as §1, §2

[18] = test system: Viola tricolor; experiment: Herbicidal effect pre-emergence, VIOTR; conditions: 320 g/hectare, visual grading after 3 weeks vs untreated controls
Text: as §1, §2

[19] = test system: Stellaria media; experiment: Herbicidal effect post-emergence, STEME
Description: as §3

[20] = test system: Alopecurus myosuroides; experiment: Herbicidal effect pre-emergence, ALOMY
Text: as §1, §2

[21] = test system: Sinapis alba; experiment: Herbicidal effect pre-emergence, Sinapis alba; conditions: 0.32 kg of active substance per hectare, visual grading after 3 weeks
Text: as §1, §2

[22] = test system: Echinochloa crus-galli; experiment: Herbicidal effect pre-emergence, ECHCG; conditions: 0.32 kg of active substance per hectare, visual grading after 3 weeks
Text: as §1, §2

[23] = test system: Stellaria media; experiment: Herbicidal effect pre-emergence, STEME; conditions: 0.32 kg of active substance per hectare, visual grading after 3 weeks
Text: as §1, §2

[24] = test system: Avena fatua; experiment: Herbicidal effect pre-emergence, Avena fatua; conditions: 0.32 kg of active substance per hectare, visual grading after 3 weeks
Text: as §1, §2

[25] = 0.32 kg of active substance per hectare, visual grading after 3 weeks

Structure (SMILES)	Effect in % in respect of stated plant, POLCO [1]	Effect in % in respect of stated plant, VERPE [2]	Effect in % in respect of stated plant, ABUTH [3]	Effect in % in respect of stated plant, VERPE [4]	Effect in % in respect of stated plant, MATIN [5]	Effect in % in respect of stated plant, POLCO [6]	Effect in % in respect of stated plant, AMARE [7]	Effect in % in respect of stated plant, PHBPU [8]	Effect in % in respect of stated plant, MATIN [9]	Effect in % in respect of stated plant, AMARE [11]	Effect in % in respect of stated plant, ABUTH [13]	Effect in % in respect of stated plant, ECHCG [14]	Effect in % in respect of stated plant, PHBPU [17]	Effect in % in respect of stated plant, VIOTR [18]	Effect in % in respect of stated plant, STEME [19]	also measured
N.N#CC(C#N)c1nc(-c2ccc(C(F)(F)F)cc2)nc(N)c1Cl [Compound 318]	80%	90%	80%	100%	90%	80%										
COc1c(Cl)ccc(-c2nc(N)c(Cl)c(C(C#N)C#N)n2)c1F.N [Compound 359]			80%	100%	90%	90%	100%	80%	100%	100%	90%	90%				Effect in % in respect of stated plant, SETVI [10]: 90%; Effect in % in respect of stated plant, SETVI [12]: 80%; Effect in % in respect of stated plant, LOLMU [15]: 80%
N.N#CC(C#N)c1nc(-c2ccc(Cl)cc2)nc(N)c1Cl [Ex. No. 308, Ammonium [6-amino-5-chloro-2-(4-chlorophenyl)pyrimidin-4-yl](dicyano)methanide]	90%	97%	93%	100%	93%	100%	100%	90%	90%	100%	80%	88%	95%	100%	92%	Effect in % in respect of stated plant, VIOTR [16]: 88%; Effect in % in respect of stated plant, SETVI [10]: 90%; Effect in % in respect of stated plant, SETVI [12]: 87%; Effect in % in respect of stated plant, ALOMY ([20]; 320 g/hectare, visual grading after 3 weeks vs untreated controls): 80%
N#CC(C#N)c1nc(-c2ccc([N+](=O)[O-])cc2)nc(N)c1Cl [compound 9]				80%										90%		herbicidal effect [7, 25]: very good herbicidal effect; herbicidal effect [21]: very good herbicidal effect; herbicidal effect [10, 25]: very good herbicidal effect; herbicidal effect [22]: very good herbicidal effect; herbicidal effect [13, 25]: very good herbicidal effect; herbicidal effect [23]: very good herbicidal effect; herbicidal effect [24]: very good herbicidal effect; herbicidal effect [15, 25]: very good herbicidal effect; herbicidal effect [20, 25]: very good herbicidal effect
Cc1ccc(-c2nc(N)c(Cl)c(C(C#N)C#N)n2)c(F)c1F [compound 202]			90%	100%	80%	90%	90%			100%		90%	100%			
N#CC(C#N)c1nc(C2CC2)nc(N)c1F [compound 248]		90%		90%	80%				80%	80%			80%		80%	
N#CC(C#N)c1nc(C2CC2)nc(N)c1Cl [compound 249]	90%	100%	83%	90%	90%	90%	90%	90%	90%	93%	90%	90%	85%	95%	80%	Effect in % in respect of stated plant, VIOTR [16]: 87%
CC(C)(C)c1nc(N)c(Cl)c(C(C#N)C#N)n1.N [compound 455]														100%		Effect in % in respect of stated plant, LOLMU [15]: 80%

From US8309557B2, “Pyrimidin-4-ylpropanedinitrile derivatives, processes for their preparation and their use as herbicides and plant growth regulators” (Bayer Intellectual Property GmbH, priority 2009, dated 2012)
